Key:
[1] = tested on: orthotopically growing human glioblastoma; settings: mouse models; cited from earlier work
[2] = tested on: HeLa cells; assay: Cell uptake of [18F]DASA-23 in HeLa cells; format: cell-based, human
Description: Cell Uptake Studies: HeLa cells (0.5×106) were plated into 6-well plates overnight before [^18F]DASA-23 uptake analysis. On the day of the experiment, fresh, prewarmed DMEM containing 25 μCi of [^18F]DASA-23 was added to individual wells (1 ml per well). Cells were incubated with [^18F]DASA-23 at 37° C. and 5% CO2 over a 60 min time course. […] At the specified time points, incubation plates were put on ice, washed with ice-cold phosphate-buffered saline (PBS) (3×500 μl), and lysed in radioimmunoprecipitation assay buffer (Thermo Fisher Scientific Inc.; 500 μl). A portion of the cell lysates (200 μl) were used to determine the amount of decay-corrected radioactivity on a gamma counter (Cobra II Auto-Gamma Counter; Packard Biosciences Co.). The remaining cell lysate was used post radioactive decay for determination of protein concentration using a bicinchoninic acid (BCA) assay (Thermo Fisher Scientific Inc.). Additionally, 10 μl standards from the solution of [^18F]DASA-23 in DMEM (25 μCi/mi) were counted to quantitate the percentage of radiotracer uptake. For efflux studies, HeLa cells were incubated with [^18F]DASA-23 for 60 min and then washed with room temperature Hanks' buffered salt solution (3×500 μl); a subsequent incubation was then completed at 37° C. in fresh, prewarmed radiotracer-free DMEM. At the specified times, samples were processed as described above.

[3] = In vitro serum stability, human serum; format: in vitro ADME; settings: up to 120 min
Description: (§1) In Vitro Serum Stability Studies: Human and mouse serum (Sigma-Aldrich) were centrifuged at 4° C., with speed of 13,000 rpm for 10 min. Formulated [^18F]DASA-23 (130-150 μCi, 20 μl volume) was added to 330 μl of supernatant. For control, the same volume of radiolabeled compound in 330 μl PBS was used. After vortexing the radiolabeled mixtures, 70 μl aliquots were incubated at 37° C. At predetermined time points (0, 15, 30, 60, and 120 min), 140 μl of ice-cold acetonitrile was added to corresponding samples to stop metabolism. After vortexing and centrifuging samples (10 min, 13,000 rpm), the supernatants were analyzed by analytical HPLC using the same conditions described above.

[4] = In vitro serum stability, mouse serum; format: in vitro ADME; settings: up to 120 min
Description: as §1

[5] = tested on: orthotopic U87 GBM tumors; assay: PET/CT/MR imaging and ex vivo autoradiography of mice bearing orthotopic U87 tumors; format: in vivo, mouse
Description: FIG. 10 illustrates non-invasive imaging of mice bearing orthotopic U87 tumor showing representative T2-weighted MR image and fused PET/CT/MR (10 to 30 min summed activity) of a mouse head bearing an orthotopically grown U87 tumor, white arrows indicate the tumor.
FIG. 11 illustrates non-invasive imaging of mice bearing orthotopic U87 tumor showing an ex vivo autoradiography of coronal mouse brain sections.
FIG. 12B illustrates non-invasive imaging of mice bearing orthotopic U87 tumor showing orthotopic U87 tumor and corresponding contralateral normal brain TAC taken from dynamic [^18F]DASA-23 PET/CT images. Data are means±SD (n=6 animals), ***p<0.001.
PET/MR co-registration confirmed precise correspondence of the [^18F]DASA-23 signal with the location of the intracranial tumors, further confirmed ex vivo by autoradiography.

[6] = biological target: PKM2 (Homo sapiens, UniProt P14618); settings: cited from earlier work; for AC50: read-out: AC50 (PKM2 activation); for selectivity for PKM2 versus other pyruvate kinase isozymes: versus PKM1, PKR and PKL
Chain of PKM2 (P14618 whole entry, species assumed): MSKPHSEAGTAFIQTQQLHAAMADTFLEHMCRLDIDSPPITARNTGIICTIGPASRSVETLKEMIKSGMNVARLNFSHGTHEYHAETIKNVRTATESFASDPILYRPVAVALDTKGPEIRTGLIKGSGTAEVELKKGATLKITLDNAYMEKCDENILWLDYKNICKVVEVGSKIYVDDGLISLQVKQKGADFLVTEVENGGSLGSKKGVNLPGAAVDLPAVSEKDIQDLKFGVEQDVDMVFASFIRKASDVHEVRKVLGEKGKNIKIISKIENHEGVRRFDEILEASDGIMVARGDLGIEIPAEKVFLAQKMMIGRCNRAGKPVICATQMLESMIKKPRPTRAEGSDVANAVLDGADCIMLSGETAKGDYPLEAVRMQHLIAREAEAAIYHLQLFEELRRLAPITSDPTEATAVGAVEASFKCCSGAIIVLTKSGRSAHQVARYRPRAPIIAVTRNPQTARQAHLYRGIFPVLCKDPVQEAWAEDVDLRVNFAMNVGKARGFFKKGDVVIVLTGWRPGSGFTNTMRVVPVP

Row | SMILES | detection of PKM2-expressing tumor in vivo [1] | cell uptake ([2]; 30 min) | cell uptake ([2]; 60 min) | percentage of intact tracer ([3]; 37° C.) [%] | serum stability [3] | percentage of intact tracer ([4]; 37° C.) [%] | serum stability [4] | tumor delineation by dynamic PET imaging ([5]; orthotopic U87 GBM tumors vs surrounding normal brain, n=6 mice) | tumor uptake in blocking study (autoradiography) ([5]; pre-treatment with TEPP-46 (50 mg/kg) 60 min prior to tracer) | AC50 [6] [nM] | selectivity for PKM2 versus other pyruvate kinase isozymes [6]
1 | [11CH3]Oc1ccc(S(=O)(=O)N2CCN(S(=O)(=O)c3c(F)cccc3F)CC2)cc1 [[^11C]DASA-23] | successfully detected orthotopically growing human glioblastoma | – | – | – | – | – | – | – | – | – | –
2 | COc1ccc(S(=O)(=O)N2CCN(S(=O)(=O)c3c(F)cccc3[18F])CC2)cc1 [[^18F]DASA-23, 1-((2-Fluoro-6-(Fluoro-^18F)Phenyl)Sulfonyl)-4-((4-Methoxyphenyl)Sulfonyl)Piperazine] | – | 11.4±2.2 % of total tracer/mg protein | 21.0±2.0 % of total tracer/mg protein | 95.7 | stable | 95.8 | stable | clearly delineated from the surrounding normal brain tissue | dramatic reduction in tumor uptake | 90 | selective activation of PKM2
3 | COc1ccc(S(=O)(=O)N2CCN(S(=O)(=O)c3c(F)cccc3F)CC2)cc1 [DASA-23, reference compound] | – | – | – | – | – | – | – | – | – | 90 | selectivity for PKM2 relative to other PK enzymes

Source: US10675366B2, “Imaging tumor glycolysis by non-invasive measurement of pyruvate kinase M2” (The Board of Trustees of the Leland Stanford Junior …, priority 2016, dated 2020)
